Laboratory results reported in patent US20070128217A1 (priority 2003, published 2007).

Columns and labels:
[1] = tested on: control sera (pooled serum of ten healthy LUMC hospital workers; commercial negative donor pooled serum from the Dutch bloodbank); assay type: binding, human; parameters: Binding of Control serum LUMC to linear peptides / Binding of Control serum Blood-bank to linear peptides / Binding of Control serum LUMC to looped peptides / Binding of Control Serum Blood-Bank to Looped peptides / Binding of Control serum LUMC to linear peptides of the protein M of SARS-CoV Urbani / Binding of Control serum Blood-bank to linear peptides of the protein M of SARS-CoV Urbani / Binding of Control serum LUMC to looped peptides of the protein M of SARS-CoV Urbani / Binding of Control Serum Blood-Bank to Looped peptides of the protein M of SARS-CoV Urbani: unit not given here
[2] = tested on: rabbit serum obtained by immunizing a rabbit with the SARS-CoV strain Frankfurt 1; assay type: binding; parameters: Binding of a rabbit serum to linear peptides / Binding of a rabbit serum to looped peptides / Rabbit serum linear peptides / Rabbit serum looped peptides / Binding of a rabbit serum to linear peptides of protein N of SARS-CoV Urbani (Rabbit serum linear peptides) / Binding of a rabbit serum to looped/cyclic peptides of protein N of SARS-CoV Urbani (Rabbit serum looped peptides): unit not given here

Sequence	Binding of Control Serum Blood-Bank to Looped peptides of the protein X3 of SARS-CoV Urbani [1]	Binding of Control serum Blood-bank to linear peptides of the protein X3 of SARS-CoV Urbani [1]	Binding of Control serum LUMC to linear peptides of the protein X3 of SARS-CoV Urbani [1]	Binding of Control serum LUMC to looped peptides of the protein X3 of SARS-CoV Urbani [1]	Rabbit serum linear peptides [2]	Rabbit serum looped peptides [2]	Binding of Control Serum Blood-Bank to Looped peptides [1]	Binding of Control serum Blood-bank to linear peptides [1]	Binding of Control serum LUMC to linear peptides [1]	Binding of Control serum LUMC to looped peptides [1]	Binding of a rabbit serum to linear peptides [2]	Binding of a rabbit serum to looped peptides [2]	Recognition of the peptide by the rabbit serum [2]	Binding of Control Serum Blood-Bank to Looped peptides of the protein M of SARS-CoV Urbani [1]	Binding of Control serum Blood-bank to linear peptides of the protein M of SARS-CoV Urbani [1]	Binding of Control serum LUMC to linear peptides of the protein M of SARS-CoV Urbani [1]	Binding of Control serum LUMC to looped peptides of the protein M of SARS-CoV Urbani [1]
RTFRIAIWNLDVIIS	0.9	0.7	0.6	0.8	0.3	0.4											
RWHTMVQTCTPNVTI					0.5	0.6	0.9	0.9	0.6	0.9							
SEDRHSGVKDYVVVH							0.5	1.0	0.8	0.5	0.1	0.4					
SGTYEGNSPFHPLAD					0.6	0.6	0.8	0.8	0.8	0.8							
SGVANPAMDPIYDEP							0.5	0.4	0.3	0.5	1.1	0.6					
SGVKDYVVVHGYFTE							0.2	0.5	0.6	0.5	0.1	0.7					
SITAQPVKIDNASPA							0.4	0.6	0.6	0.4	0.1	0.4					
SKKTTKLVVILRIGT							0.7	0.6	0.8	0.7			recognized				
SRVKNLNSSEGVPDL							0.5	0.9	0.7	0.7	0.7	0.0					
STPKLKEDYQIGGYS							0.2	0.7	0.7	0.3	0.1	0.3					
TDHAGSNDNIALLVQ					0.1	0.2								1.0	0.7	1.0	1.0
TFFIFNKLVKDPPNV							0.6	0.7	0.6	0.6	0.1	0.5					
TINCQDPAGGALIAR					0.6	0.7	1.3	1.0	0.6	1.0							
TMVQTCTPNVTINCQ					0.5	0.4	0.9	0.7	0.7	0.7							
TTVLLKEPCPSGTYE					0.4	0.5	0.9	0.9	0.9	1.0							
TVLLKEPCPSGTYEG					0.2	0.2	0.7	0.7	0.8	0.8							

Sequence	Binding of Control Serum Blood-Bank to Looped peptides of the protein X3 of SARS-CoV Urbani [1]	Binding of Control serum Blood-bank to linear peptides of the protein X3 of SARS-CoV Urbani [1]	Binding of Control serum LUMC to linear peptides of the protein X3 of SARS-CoV Urbani [1]	Binding of Control serum LUMC to looped peptides of the protein X3 of SARS-CoV Urbani [1]	Rabbit serum linear peptides [2]	Rabbit serum looped peptides [2]	Binding of Control Serum Blood-Bank to Looped peptides [1]	Binding of Control serum Blood-bank to linear peptides [1]	Binding of Control serum LUMC to linear peptides [1]	Binding of Control serum LUMC to looped peptides [1]	Binding of a rabbit serum to linear peptides [2]	Binding of a rabbit serum to looped peptides [2]	Recognition of the peptide by the rabbit serum [2]	Binding of Control Serum Blood-Bank to Looped peptides of the protein M of SARS-CoV Urbani [1]	Binding of Control serum Blood-bank to linear peptides of the protein M of SARS-CoV Urbani [1]	Binding of Control serum LUMC to linear peptides of the protein M of SARS-CoV Urbani [1]	Binding of Control serum LUMC to looped peptides of the protein M of SARS-CoV Urbani [1]
VKDPPNVQIHTIDGS							0.5	0.4	0.4	0.6	0.1	0.5					
VKIDNASPASTVHAT							0.5	0.7	0.7	0.6	0.2	0.3					
VLKTMSLYMAISPKF							0.7	0.9	0.5	0.6	0.3	0.5					
VRGTTVLLKEPCPSG					0.4	0.4	0.8	0.8	1.0	0.9							
VRQLFKPLTKKNYSE	0.9	0.9	0.7	0.7	0.4	2.2											
VTGGIAIAMACIVGL					0.3	0.4								0.7	1.1	1.3	0.8
VTINCQDPAGGALIA					0.5	0.0	0.5	0.8	0.6	0.5							
WVTGGIAIAMACIVG					0.4	0.2								0.8	0.8	0.4	0.9
YDANYFVCWHTHNYD							0.3	0.7	0.7	0.4	0.1	0.4					
YHYQECVRGTTVLLK					1.7	0.6	0.7	0.8	0.7	0.8							
YKLNTDHAGSNDNIA					0.1	0.1								0.6	0.6	0.7	0.6
YQIGGYSEDRHSGVK							0.3	0.3	0.4	0.3	0.1	0.5					
YSRVKNLNSSEGVPD							0.4	0.6	0.8	0.8	0.3	0.0					
YVYSRVKNLNSSEGV							0.9	0.8	0.6	0.8	1.2	0.5					
YYKLGASQRVGTDSG					0.1	0.0								0.7	1.0	0.8	0.7
